# Measurements from patent US12187727B2, “Methods for antagonizing a melanocortin 4 receptor” (Pfizer Inc., priority 2020, dated 2025).
# Target: human Melanocortin-4 receptor (MC4R) (Homo sapiens (Human), UniProt P32245)
# Assay: Functional in vitro MC4R antagonist potency assay (cAMP HTRF in CHO cells)
# Assay type: cell-based
# Conditions: not given
# Protocol: Example BB. Functional In Vitro MC4R Antagonist Potency Assay
# The functional in vitro antagonist potency for test compounds was determined by monitoring intracellular cyclic adenosine monophosphate (cAMP) levels in Chinese hamster ovary (CHO—) cells stably expressing the human Melanocortin-4 receptor (MC4R). Following agonist activation, human MC4R associates with the G-protein complex causing the Gα subunit to exchange bound GDP for GTP, followed by dissociation of the Ga-GTP complex. The activated Gα subunit can couple to downstream effectors to regulate the levels of second messengers or cAMP within the cell. Thereby, determination of intracellular cAMP levels allows for pharmacological characterization. Intracellular cAMP levels are quantitated using a homogenous assay utilizing the Homogeneous Time-Resolved Fluorescence (HTRF) technology from CisBio. The method is a competitive immunoassay between native cAMP produced by cells and the cAMP labelled with the acceptor dye, d2. The two entities then compete for binding to a monoclonal anti-cAMP antibody labeled with cryptate. The specific signal is inversely proportional to the concentration of cAMP in the cells.
# Test compounds were solubilized to 30 mM in 100% dimethyl sulfoxide (DMSO) and stored. […] The final compound concentration range in the assay was 400 nM to […], with a final DMSO concentration of 0.1%.
# (95% O2: 5% CO2) overnight, with micro-clime lids (Labcyte, Cat No. LLS-0310). […] Cells were incubated with compound for 30 minutes at 37° C. (95% O2: 5% CO2) before addition of 5 μL EC80, agonist stimulation (200 nM α-melanocyte stimulating hormone, aMSH, Bachem) and another 30-minute incubation at 37° C. (95% O2: 5% CO2). Intracellular cAMP levels were quantified as per Cisbio's protocol (5 uL of D2 and then 5 uL Cryptate, incubated for 1-2 hours at room temperature).
# Data expressed as nM cAMP were then normalized to control wells using Activity Base (IDBS). Zero percent effect (ZPE) was defined as nM of cAMP generated from ECK, agonist stimulation (200 nM aMSH). In the absence of an antagonist control compound, one hundred percent effect (HPE) was defined as nM of cAMP generated from assay buffer/vehicle only.
# human Melanocortin-4 receptor (MC4R), sequence (P32245 whole entry): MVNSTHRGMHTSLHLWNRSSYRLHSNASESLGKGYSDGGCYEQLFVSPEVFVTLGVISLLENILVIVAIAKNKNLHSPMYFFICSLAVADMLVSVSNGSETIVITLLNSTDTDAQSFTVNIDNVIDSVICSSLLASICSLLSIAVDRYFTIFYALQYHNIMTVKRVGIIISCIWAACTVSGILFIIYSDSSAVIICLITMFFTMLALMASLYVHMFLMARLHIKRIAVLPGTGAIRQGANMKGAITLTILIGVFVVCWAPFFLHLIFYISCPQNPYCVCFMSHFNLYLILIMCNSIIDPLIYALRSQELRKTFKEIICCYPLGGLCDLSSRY
row,SMILES,Kb
1,"COc1cc([C@@H](C)C(=O)N2CC[C@@]3(CCc4cc(-c5nnn(C)n5)c(C)nc4N3)C2)c(F)cn1 [Example 13, (2R)-2-(5-Fluoro-2-methoxypyridin-4-yl)-1-[(2S)-7-methyl-6-(2-methyl-2H-tetrazol-5-yl)-3,4-dihydro-1H-spiro[1,8-naphthyridine-2,3′-pyrrolidin]-1′-yl]propan-1-one]",0.16 nM
2,"[2H]c1cc([2H])nc(-c2cc3c(nc2C)N[C@@]2(CC3)CCN(C(=O)[C@H](C)c3cc(OC)ncc3F)C2)n1 [Example 18, (2R)-2-(5-Fluoro-2-methoxypyridin-4-yl)-1-{(2S)-7-methyl-6-[(4,6-^2H2)pyrimidin-2-yl]-3,4-dihydro-1H-spiro[1,8-naphthyridine-2,3′-pyrrolidin]-1′-yl}propan-1-one]",0.55 nM

# Same assay, conditions: cAMP HTRF in CHO cells expressing human MC4R, 200 nM aMSH; Kb by Leff-Dougall equation; geometric mean; read-out: Kb (nM) Antagonist geometric
row,SMILES,Kb
1,"COc1cc([C@@H](C)C(=O)N2CC[C@@]3(CCc4cc(-c5nccc(C(F)F)n5)c(C)nc4N3)C2)c(F)cn1 [Example 200, (2R)-1-{(2S)-6-[4-(difluoromethyl)pyrimidin-2-yl]-7-methyl-3,4-dihydro-1H-spiro[1,8-naphthyridine-2,3′-pyrrolidin]-1′-yl}-2-(5-fluoro-2-methoxypyridin-4-yl)propan-1-one]",0.59 nM

# Same assay, conditions: human MC4R in CHO cells, cAMP HTRF, 200 nM aMSH challenge; Kb from IC50 by Leff-Dougall equation; geometric mean; read-out: Kb (nM) Antagonist geometric
row,SMILES,Kb
1,"COc1cc([C@@H](C)C(=O)N2CC[C@@]3(CCc4cc(-c5cn(C(F)F)c(C)n5)c(C)nc4N3)C2)c(F)cn1 [Example 138, (2R)-1-{(2S)-6-[1-(difluoromethyl)-2-methyl-1H-imidazol-4-yl]-7-methyl-3,4-dihydro-1H-spiro[1,8-naphthyridine-2,3′-pyrrolidin]-1′-yl}-2-(5-fluoro-2-methoxypyridin-4-yl)propan-1-one]",0.44 nM
2,"COc1cc([C@@H](C)C(=O)N2CC[C@@]3(CCc4cc(-c5nc(C(F)F)n(C)n5)c(C)nc4N3)C2)c(Cl)cn1 [Example 120, (2R)-2-(5-chloro-2-methoxypyridin-4-yl)-1-{(2S)-6-[5-(difluoromethyl)-1-methyl-1H-1,2,4-triazol-3-yl]-7-methyl-3,4-dihydro-1H-spiro[1,8-naphthyridine-2,3′-pyrrolidin]-1′-yl}propan-1-one]",0.08 nM
3,"COc1cc([C@@H](C)C(=O)N2CC[C@@]3(CCc4cc(-c5cnc(C)s5)c(C)nc4N3)C2)c(F)cn1 [Example 153, (2R)-2-(5-fluoro-2-methoxypyridin-4-yl)-1-[(2S)-7-methyl-6-(2-methyl-1,3-thiazol-5-yl)-3,4-dihydro-1H-spiro[1,8-naphthyridine-2,3′-pyrrolidin]-1′-yl]propan-1-one]",15 nM
4,"COc1cc([C@@H](C)C(=O)N2CC[C@@]3(CCc4cc(-c5ccc(C6CC6)nn5)c(C)nc4N3)C2)c(F)cn1 [Example 199, (2R)-1-[(2S)-6-(6-cyclopropylpyridazin-3-yl)-7-methyl-3,4-dihydro-1H-spiro[1,8-naphthyridine-2,3′-pyrrolidin]-1′-yl]-2-(5-fluoro-2-methoxypyridin-4-yl)propan-1-one]",> 54 nM
5,"COc1cc([C@@H](C)C(=O)N2CC[C@@]3(CCc4cc(-c5cnc(C)nc5)c(C)nc4N3)C2)c(F)cn1 [Example 151, (2R)-2-(5-fluoro-2-methoxypyridin-4-yl)-1-[(2S)-7-methyl-6-(2-methylpyrimidin-5-yl)-3,4-dihydro-1H-spiro[1,8-naphthyridine-2,3′-pyrrolidin]-1′-yl]propan-1-one]",40 nM
6,"COc1cc([C@@H](C)C(=O)N2CC[C@@]3(CCc4cc(-c5ccccn5)c(C)nc4N3)C2)c(F)cn1 [Example 140, (2R)-2-(5-fluoro-2-methoxypyridin-4-yl)-1-[(2S)-7-methyl-6-(pyridin-2-yl)-3,4-dihydro-1H-spiro[1,8-naphthyridine-2,3′-pyrrolidin]-1′-yl]propan-1-one]",19 nM
7,"COc1cc([C@@H](C)C(=O)N2CC[C@@]3(CCc4cc(C5CCOCC5)c(C)nc4N3)C2)c(F)cn1 [Example 131, (2R)-2-(5-fluoro-2-methoxypyridin-4-yl)-1-[(2S)-7-methyl-6-(oxan-4-yl)-3,4-dihydro-1H-spiro[1,8-naphthyridine-2,3′-pyrrolidin]-1′-yl]propan-1-one]",16 nM
8,"COc1cc([C@@H](C)C(=O)N2CC[C@@]3(CCc4cc(-c5nc(C)n(C(F)F)n5)c(C)nc4N3)C2)c(F)cn1 [Example 188, (2R)-1-{(2S)-6-[1-(difluoromethyl)-5-methyl-1H-1,2,4-triazol-3-yl]-7-methyl-3,4-dihydro-1H-spiro[1,8-naphthyridine-2,3′-pyrrolidin]-1′-yl}-2-(5-fluoro-2-methoxypyridin-4-yl)propan-1-one]",0.086 nM
9,"COc1cc([C@@H](C)C(=O)N2CC[C@@]3(CCc4cc(-c5cnc(C)cn5)c(C)nc4N3)C2)c(F)cn1 [Example 158, (2R)-2-(5-fluoro-2-methoxypyridin-4-yl)-1-[(2S)-7-methyl-6-(5-methylpyrazin-2-yl)-3,4-dihydro-1H-spiro[1,8-naphthyridine-2,3′-pyrrolidin]-1′-yl]propan-1-one]",23 nM
10,"COc1cc([C@@H](C)C(=O)N2CC[C@@]3(CCc4cc(-c5nccc(C(F)(F)F)n5)c(C)nc4N3)C2)c(F)cn1 [Example 143, (2R)-2-(5-fluoro-2-methoxypyridin-4-yl)-1-{(2S)-7-methyl-6-[4-(trifluoromethyl)pyrimidin-2-yl]-3,4-dihydro-1H-spiro[1,8-naphthyridine-2,3′-pyrrolidin]-1′-yl}propan-1-one]",2.6 nM
11,"COc1cc([C@@H](C)C(=O)N2CC[C@]3(CCc4cc(-c5nnn(C)n5)c(C)nc4N3)C2)c(F)cn1 [Example 116, (2R)-2-(5-fluoro-2-methoxypyridin-4-yl)-1-[(2R)-7-methyl-6-(2-methyl-2H-tetrazol-5-yl)-3,4-dihydro-1H-spiro[1,8-naphthyridine-2,3′-pyrrolidin]-1′-yl]propan-1-one]",1.7 nM
12,"Cc1nc2c(cc1-c1nc(C(F)F)n(C)n1)CC[C@@]1(CCN(C(=O)Cc3ccc(F)c(F)c3)C1)N2 [Example 121, 1-{(2S)-6-[5-(difluoromethyl)-1-methyl-1H-1,2,4-triazol-3-yl]-7-methyl-3,4-dihydro-1H-spiro[1,8-naphthyridine-2,3′-pyrrolidin]-1′-yl}-2-(3,4-difluorophenyl)ethan-1-one]",4 nM
13,"COc1cc([C@@H](C)C(=O)N2CC[C@@]3(CCc4cc(Cl)c(C)nc4N3)C2)c(F)cn1 (single isomer, unassigned) [Example 102]",> 92 nM

# Same assay, conditions: read-out: Kb (nM) Antagonist geometric mean
row,SMILES,Kb
1,"COc1cc([C@H](C)C(=O)N2CC[C@]3(CCc4cc(-c5ncccn5)c(C)nc4N3)C2)c(F)cn1 [Example 30, (2S)-2-(5-fluoro-2-methoxypyridin-4-yl)-1-[(2R)-7-methyl-6-(pyrimidin-2-yl)-3,4-dihydro-1H-spiro[1,8-naphthyridine-2,3′-pyrrolidin]-1′-yl]propan-1-one]",> 54 nM
2,"Cc1nc2c(cc1-c1ncccn1)CC[C@@]1(CCN(C(=O)Cc3cc(F)c(F)c(F)c3)C1)N2 [Example 54, 1-[(2S)-7-methyl-6-(pyrimidin-2-yl)-3,4-dihydro-1H-spiro[1,8-naphthyridine-2,3′-pyrrolidin]-1′-yl]-2-(3,4,5-trifluorophenyl)ethan-1-one]",4.1 nM
3,"Cc1nc2c(cc1-c1nnn(C)n1)CC[C@@]1(CCN(C(=O)Cc3ccc(C(F)(F)F)cc3)C1)N2 (single isomer, unassigned) [Example 65, 1-[7-methyl-6-(2-methyl-2H-tetrazol-5-yl)-3,4-dihydro-1H-spiro[1,8-naphthyridine-2,3′-pyrrolidin]-1′-yl]-2-[4-(trifluoromethyl)phenyl]ethan-1-one]",10 nM
4,"Cc1nc2c(cc1-c1ncccn1)CC[C@@]1(CCN(C(=O)Cc3ccc(C(F)(F)F)cc3)C1)N2 [Example 73, 1-[(2S)-7-methyl-6-(pyrimidin-2-yl)-3,4-dihydro-1H-spiro[1,8-naphthyridine-2,3′-pyrrolidin]-1yl]-2-[4-(trifluoromethyl)phenyl]ethan-1-one]",17 nM
5,"COc1cc([C@@H](C)C(=O)N2CC[C@@]3(CCc4cc(-c5cn(C(F)(F)F)c(C)n5)c(C)nc4N3)C2)c(F)cn1 [Example 27, (2R)-2-(5-fluoro-2-methoxypyridin-4-yl)-1-{(2S)-7-methyl-6-[2-methyl-1-(trifluoromethyl)-1H-imidazol-4-yl]-3,4-dihydro-1H-spiro[1,8-naphthyridine-2,3′-pyrrolidin]-1′-yl}propan-1-one]",4.6 nM
6,"COc1cc([C@@H](C)C(=O)N2CC[C@@]3(CCc4cc(-c5nc(C(F)(F)F)n(C)n5)c(C)nc4N3)C2)c(F)cn1 (single isomer, unassigned) [Example 92]",0.16 nM
